Assay results reported in publication PMC9048745, “Physicochemical investigation of a novel curcumin diethyl γ-aminobutyrate, a carbamate ester prodrug of curcumin with enhanced anti-neuroinflammatory activity” (PLoS ONE, 2022).
Like-named read-outs stand apart in the source and are kept apart here.

Assays:
[1] = Release study in human plasma at 37°C; assay type: in vitro ADME
Procedure: The amount of curcumin released from CUR-2GE in human plasma was determined at 37°C at various time points. A stock solution of CUR-2GE (100 μg/mL) in the diluent was prepared and diluted with pre-incubated human plasma at 37°C for 5 min to obtain the final concentration of 5 μg/mL. The mixture was incubated at 37°C for 5, 10, 20, 30 and 60 min and each aliquot (300 μL) was added with 300 μL of acetonitrile to stop the reaction and further centrifugated at 4°C at 14,000 rpm for 30 min. The concentration of CUR-2GE in the supernatant was analyzed using UPLC [19, 26]. Experiments were carried out in triplicates. The initial time point (0 min) was prepared by adding 300 μL acetonitrile to the pre-incubated human plasma. The percent peak area of CUR-2GE and its hydrolytic products was plotted against incubation time. The k and t1/2 values were determined using the linear pseudo-first-order model.

[2] = Partition coefficient, shake flask method (OECD 107); assay type: physicochemical; conditions: 25°C, aqueous phase not detectable, LOQ of 0.05 μg/mL used for calculation
Procedure: The partition coefficient of CUR-2GE was quantified using the shake flask method according to the guideline of OECD 107 with some modifications. A saturated mixture of n-octanol/water was firstly prepared at 25°C by stirring an equal volume of n-octanol/water for 24 h and left standing until complete separation. A 1 mg of CUR-2GE was dissolved in saturated n-octanol and water at volume ratios of 1:1, 1:2 and 2:1 in screw cap tubes. Experiments were run in duplicate. The tube was shaken through 180° over the transverse axis approximately 100 times in 5 min at room temperature (25°C) to reach equilibrium and phase distribution. The phases were then separated by centrifugation at 25°C at 5,500 rpm for 10 min. […] CUR-2GE concentrations in each phase were analyzed by UPLC, and the Po/w value was determined. In addition to water used as an aqueous phase, the partition coefficient between n-octanol and buffer at pH 4.5 and the Po/buffer pH 4.5 value were determined (see S1 Appendix).
The Po/w value and Po/buffer pH 4.5 value were calculated by Eq. 3 and Eq. 4, respectively. The Log Po/w and Log Po/buffer pH 4.5 were evaluated from the average results (n = 6) from three solvent ratios, where the results fall within the range of variation of ± 0.3 units. […]
The half-lives (t1/2) of CUR-2GE were calculated by Eq. 6: […]

## CCOC(=O)CCCNC(=O)Oc1ccc(/C=C/C(=O)/C=C(O)/C=C/c2ccc(OC(=O)NCCCC(=O)OCC)c(OC)c2)cc1OC [CUR-2GE, Curcumin diethyl γ-aminobutyrate]
[1]
  rate in human plasma lower than that in buffer pH 7.4: approximately 8.7 fold
[1]; human plasma
  k, pseudo-first-order hydrolysis: 1.76 ± 0.30 h⁻¹
  time for sequential conversion to CUR-1GE and curcumin in plasma: ≤ 1 h
[1]; human plasma, read-out: t1/2, hydrolysis (converted)
  half-life at 5 μg/mL: 24 ± 4.8 min
[2]; n-octanol/buffer pH 4.5, pH 4.5, read-out: Log P (Log Po/buffer pH 4.5), n-octanol/buffer pH 4.5
  logP: 3.43 ± 0.14
[2]; n-octanol/water, read-out: Log P (Log Po/w), n-octanol/water
  logP: 3.57 ± 0.19
